Results on 1 molecule are retold here after paper PMC5214259, “Identification of Guanosine 5′-diphosphate as Potential Iron Mobilizer: Preventing the Hepcidin-Ferroportin Interaction and Modulating the Interleukin-6/Stat-3 Pathway” (Scientific Reports, 2017).

The term Kd denotes the concentration at which binding is half-saturated.

The target in this experiment is T1, hepcidin (Homo sapiens, UniProt P81172).
T1 construct: gene HAMP; hepcidin-25 (25 amino acid peptide hormone)
T1 sequence (P81172 60-84 limits assumed): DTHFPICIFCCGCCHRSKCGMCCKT
Briefly: UV-visible absorption titration (Kd); thermal shift assay (SYPRO orange, Tm […] to […] °C with equimolar GDP). The experiment is classed as binding.

On to `Nc1nc2c(ncn2[C@@H]2O[C@H](COP(=O)(O)OP(=O)(O)O)[C@@H](O)[C@H]2O)c(=O)[nH]1` [ZINC08215481, guanosine 5′-diphosphate], for which the dissociation constant (Kd) stood at 5.88 µM.
